The record followed here is US20250296971A1, “GASTRIC INHIBITORY PEPTIDE RECEPTOR LIGANDS” (priority 2021, published 2025).

In assay [1] the target is T1, GIPR (CHO-K1-hGIPR cells) (Homo sapiens, UniProt P48546).
T1 construct: host or cells: CHO-K1
T1 sequence (P48546 22-466): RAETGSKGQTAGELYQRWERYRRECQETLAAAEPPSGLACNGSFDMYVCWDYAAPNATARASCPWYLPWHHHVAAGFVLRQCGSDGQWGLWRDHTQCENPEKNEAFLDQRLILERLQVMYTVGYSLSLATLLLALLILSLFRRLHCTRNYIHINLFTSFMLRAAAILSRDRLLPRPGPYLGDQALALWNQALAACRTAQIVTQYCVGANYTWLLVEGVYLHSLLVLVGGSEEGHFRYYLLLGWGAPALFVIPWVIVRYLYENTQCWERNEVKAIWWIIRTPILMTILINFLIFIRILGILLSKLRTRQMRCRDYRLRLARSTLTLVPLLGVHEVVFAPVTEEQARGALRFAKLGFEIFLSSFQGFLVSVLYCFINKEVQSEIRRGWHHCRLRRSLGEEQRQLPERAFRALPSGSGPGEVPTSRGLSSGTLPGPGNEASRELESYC
Briefly: FACS binding assay. The note with it: competition with 20 nM GIP-057, 4° C., 1 hour, read-out: pIC50 Category (converted). The gist of the method: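 Peptide binding read by flow cytometry as APC-channel median fluorescence, fitted with a four-parameter logistic to yield EC50 or IC50. Cells were hGIPR-transfected CHO-K1 in PBS with 1% FCS, detected with 1 μg/mL APC-streptavidin, 30 min on ice.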
On the technique in general: In flow cytometry, cells or beads pass a laser one at a time.

Assay [2] has as its target T2, human GIP receptor (bioGIPR) (Homo sapiens, UniProt P48546).
T2 construct: Biotinylate extracellular of the human GIP receptor (bioGIPR, Proteros biostructures GmbH, lot #02/2b); purchased Proteros biostructures GmbH lot #02/2b
T2 sequence (P48546 22-138 limits assumed): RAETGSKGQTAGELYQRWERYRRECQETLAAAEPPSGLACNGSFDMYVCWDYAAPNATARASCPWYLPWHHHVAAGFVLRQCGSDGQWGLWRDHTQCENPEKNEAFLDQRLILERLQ
Nature of the assay: Surface plasmon resonance (SPR) based binding assay. The note with it: Single Cycle Kinetic mode, 25° C.; for t1/2 Category: SPR dissociation half-life; for Kd: SPR, 1:1 Langmuir binding model, read-out: pKD Category (converted). On the procedure: Surface plasmon resonance (SPR) studies were performed using a Biacore™ T200 SPR system. Briefly, polarized light is directed towards a gold-labeled sensor surface, and minimum intensity reflected light is detected. The angle of reflected light changes as molecules bind and dissociate.
Biotinylate extracellular of the human GIP receptor (bioGIPR, Proteros biostructures GmbH, lot #02/2b) was captured on a biotin capture chip (Biotin CAPture Kit, Series S, GE Healthcare, Cat #28-9202-34). bioGIPR was diluted in Running Buffer (HBST from Xantec Analytics; […], 0.05% Tween20, 0.1% DMSO) to a final concentration 100 nM and than flushed over the Fc-capture chip to immobilized ˜3500 RUs.
Stock solutions of test compounds were prepared by dissolving each compound in DMSO. DMSO stock solution were diluted 1:1000 in Running Buffer without DMSO. Further sequential dilutions were made with Running Buffer containing 0.1% DMSO. SPR binding analyses were performed in Single Cycle Kinetic (SCK) mode at 25° C. Flow cell without immobilized bioGIPR served as reference flowcell. After each SCK run, bioGIRP and the Biotin Capture Reagent was removed with Regeneration Solution (6 M Guanidium, 0.75 M NaOH).
In between every three SCK measurements, a blank run with Running Buffer instead of test compound was included to correct for baseline drifts (double blanking method).
For each test compound, SPR raw data in the form of resonance units (RU) were plotted as sensorgrams using the Biacore™ T200 control software. The signal from the blank sensorgram was subtracted from that of the test compound sensorgram (blank corrected). The blank corrected sensorgram was corrected for baseline drift by subtracting the sensorgram of a SCK run without the test compound (running buffer only). The association rate (kon), dissociation rate (koff), dissociation constant (KD), and t1/2 were calculated from blank corrected SPR data using the 1:1 Langmuir binding model from the Biacore™ T200 evaluation software. Raw data and fit results were imported as text files in IDBS. The pKD value (negative decadic logarithm of dissociation constant) was calculated in the IDBS excel template.
(In general: SPR reads the build-up and loss of mass on a sensor chip optically.)

Each structure is given as a SMILES string. *1 amine or outer side, *2 acyl side, *3 side chain or, on linkers, in order; H or OH if unused. Where a SMILES comes first, the peptide text is derived from it. Bridges are numbered along the chain shown (N, C = ends). Side-chain parts run from the residue outwards. [ ]: non-standard residue; d: D form. The star is where a group is joined. X12 = O=C(O)CN1CCN(CC(=O)O)CCN(CC(=O)N[C@H](CCC(=O)NC[C@H](O)[C@@H](O)[C@H](O)[C@H](O)CO)C(=O)*)CCN(CC(=O)O)CC1; X2 = O=C(O)CN1CCN(CC(=O)O)CCN(CC(=O)N[C@@H](CCC(=O)NC[C@H](O)[C@@H](O)[C@H](O)[C@H](O)CO)C(=O)*)CCN(CC(=O)O)CC1; NH(1-deoxy-D-glucityl) = OC[C@@H](O)[C@@H](O)[C@H](O)[C@@H](O)CN*; Pro(trans-4-NH2) = O=C([C@@H]1C[C@@H](N[*:3])CN1[*:1])[*:2]; DOTA = O=C(O)CN1CCN(CC(=O)O)CCN(CC(=O)*)CCN(CC(=O)O)CC1; Trp(5-Cl) = N[C@@H](Cc1c[nH]c2ccc(Cl)cc12)C(=O)O; Pyridine(2,6-diCH2) = c1cc(C[*:1])nc(C[*:2])c1; Pro(4R-NH2) = N[C@H]1CN[C@H](C(=O)O)C1; Glutaryl = O=C(CCCC(=O)[*:2])[*:1]; Hyp = O=C(O)[C@@H]1C[C@@H](O)CN1; X1 = O=C(CN1CCC(N[*:1])CC1)[*:2]; Suc = O=C(CCC(=O)[*:2])[*:1]; hSer = N[C@@H](CCO)C(=O)O; Api = NC1(C(=O)O)CCNCC1; Thp = NC1(C(=O)O)CCOCC1

Consider `CC[C@H](C)[C@@H]1NC(=O)[C@H](CC(C)C)NC(=O)C2(CCN(C(=O)[C@H](CCC(=O)NC[C@H](O)[C@@H](O)[C@H](O)[C@H](O)CO)NC(=O)CN3CCN(CC(=O)O)CCN(CC(=O)O)CCN(CC(=O)O)CC3)CC2)NC(=O)[C@@H](NC(=O)[C@@H](CC(C)C)NC(=O)[C@H](CCC(=O)O)NC(=O)[C@@H]2C[C@@H](NC(=O)CCCC(=O)NC[C@H](O)[C@@H](O)[C@H](O)[C@H](O)CO)CN2C(=O)[C@H](Cc2c[nH]c3ccc(Cl)cc23)NC(=O)[C@H](Cc2c[nH]c3ccccc23)NC(=O)[C@H](CC(=O)O)NC(=O)CN2CCC(NC(=O)CCCC(=O)NC[C@H](O)[C@@H](O)[C@H](O)[C@H](O)CO)CC2)CSCc2cccc(n2)CSC[C@@H](C(=O)NC2CCN(CC(=O)N[C@H](CCC(=O)NC[C@H](O)[C@@H](O)[C@H](O)[C@H](O)CO)C(N)=O)CC2)NC1=O` [GIP-007, AGLU-Glutar-APAc-Asp-Trp-5Clw-Tap(AGLU-Glutar)-Glu-leu-[Cys(2Lut)-Apc(DOTA-glu(AGLU))-Leu-Ile-Cys]-APAc-glu(AGLU)-NH2] ({NH(1-deoxy-D-glucityl)-Glutaryl}-[X1]DW[Trp(5-Cl)][Pro(trans-4-NH2)]([Glutaryl-NH(1-deoxy-D-glucityl)])E[dL]C[Api](X2)LIC[X1][dE](NH(1-deoxy-D-glucityl))-NH2; linker 8-12 via Pyridine(2,6-diCH2)), for which the IC50 in assay [1] was 10 to 79.4 nM. In addition, in assay [2], the “t1/2 Category” value is recorded as “A (t1/2 values>15 min)” and the Kd is under 1 nM.
The matching figures for `CC[C@H](C)[C@@H]1NC(=O)[C@H](CC(C)C)NC(=O)C2(CCN(C(=O)[C@@H](CCC(=O)NC[C@H](O)[C@@H](O)[C@H](O)[C@H](O)CO)NC(=O)CN3CCN(CC(=O)O)CCN(CC(=O)O)CCN(CC(=O)O)CC3)CC2)NC(=O)[C@@H](NC(=O)[C@@H](CC(C)C)NC(=O)[C@H](CCC(=O)O)NC(=O)[C@@H]2C[C@@H](N)CN2C(=O)[C@H](Cc2c[nH]c3ccc(Cl)cc23)NC(=O)[C@H](Cc2c[nH]c3ccccc23)NC(=O)[C@H](CC(=O)O)NC(=O)CN2CCC(NC(=O)CCCC(=O)NC[C@H](O)[C@@H](O)[C@H](O)[C@H](O)CO)CC2)CSCc2cccc(n2)CSC[C@@H](C(=O)NC2CCN(CC(=O)N[C@H](CCC(=O)NC[C@H](O)[C@@H](O)[C@H](O)[C@H](O)CO)C(N)=O)CC2)NC1=O` [GIP-008, AGLU-Glutar-APAc-Asp-Trp-5Clw-Tap-Glu-leu-[Cys(2Lut)-Apc(DOTA-glu(AGLU))-Leu-Ile-Cys]-APAc-glu(AGLU)-NH2] ({NH(1-deoxy-D-glucityl)-Glutaryl}-[X1]DW[Trp(5-Cl)][Pro(4R-NH2)]E[dL]C[Api](X12)LIC[X1][dE](NH(1-deoxy-D-glucityl))-NH2; linker 8-12 via Pyridine(2,6-diCH2)): under 10 nM, “A (t1/2 values>15 min)” and under 1 nM.
For `CC[C@H](C)[C@@H]1NC(=O)[C@H](CC(C)C)NC(=O)C2(CCN(C(=O)CN3CCN(CC(=O)O)CCN(CC(=O)O)CCN(CC(=O)O)CC3)CC2)NC(=O)[C@@H](NC(=O)[C@@H](CC(C)C)NC(=O)[C@H](CCC(=O)O)NC(=O)[C@@H]2C[C@@H](O)CN2C(=O)[C@H](Cc2c[nH]c3ccc(Cl)cc23)NC(=O)[C@H](Cc2c[nH]c3ccccc23)NC(=O)[C@H](CC(=O)O)NC(=O)CN2CCC(NC(=O)CCCC(=O)NC[C@H](O)[C@@H](O)[C@H](O)[C@H](O)CO)CC2)CSCc2cccc(n2)CSC[C@@H](C(=O)NC2CCN(CC(=O)N[C@H](CCC(=O)NC[C@H](O)[C@@H](O)[C@H](O)[C@H](O)CO)C(N)=O)CC2)NC1=O` [GIP-011, AGLU-Glutar-APAc-Asp-Trp-5Clw-Hyp-Glu-leu-[Cys(2Lut)-Apc(DOTA)-Leu-Ile-Cys]-APAc-glu(AGLU)-NH2] ({NH(1-deoxy-D-glucityl)-Glutaryl}-[X1]DW[Trp(5-Cl)][Hyp]E[dL]C[Api](DOTA)LIC[X1][dE](NH(1-deoxy-D-glucityl))-NH2; linker 8-12 via Pyridine(2,6-diCH2)), in that order: under 10 nM, “A (t1/2 values>15 min)” and under 1 nM.
The matching figures for `CC[C@H](C)[C@@H]1NC(=O)[C@H](CC(C)C)NC(=O)C2(CCOCC2)NC(=O)[C@@H](NC(=O)[C@@H](CC(C)C)NC(=O)[C@H](CCC(=O)O)NC(=O)[C@@H]2C[C@@H](O)CN2C(=O)[C@H](Cc2c[nH]c3ccc(Cl)cc23)NC(=O)[C@H](Cc2c[nH]c3ccccc23)NC(=O)CCC(=O)O)CSCc2cccc(n2)CSC[C@@H](C(=O)NC2CCN(CC(=O)N[C@H](CCC(=O)NC[C@H](O)[C@@H](O)[C@H](O)[C@H](O)CO)C(=O)N[C@@H](CCCCNC(=O)CN3CCN(CC(=O)O)CCN(CC(=O)O)CCN(CC(=O)O)CC3)C(N)=O)CC2)NC1=O` [GIP-021, HO-Succinyl-Trp-5Clw-Hyp-Glu-leu-[Cys(2Lut)-Thp-Leu-Ile-Cys]-APAc-glu(AGLU)-Lys(DOTA)-NH2] (Suc-W[Trp(5-Cl)][Hyp]E[dL]C[Thp]LIC[X1][dE](NH(1-deoxy-D-glucityl))K(DOTA)-NH2; linker 6-10 via Pyridine(2,6-diCH2)): under 10 nM, “A (t1/2 values>15 min)” and under 1 nM.
With `CC[C@H](C)[C@@H]1NC(=O)[C@H](CC(C)C)NC(=O)C2(CCNCC2)NC(=O)[C@@H](NC(=O)[C@@H](CC(C)C)NC(=O)[C@H](CCC(=O)O)NC(=O)[C@@H]2C[C@@H](N)CN2C(=O)[C@H](Cc2c[nH]c3ccc(Cl)cc23)NC(=O)[C@H](Cc2c[nH]c3ccccc23)NC(=O)CCC(=O)O)CSCc2cccc(n2)CSC[C@@H](C(=O)NC2CCN(CC(=O)N[C@H](CCC(=O)NC[C@H](O)[C@@H](O)[C@H](O)[C@H](O)CO)C(=O)N[C@@H](CCCCNC(=O)CN3CCN(CC(=O)O)CCN(CC(=O)O)CCN(CC(=O)O)CC3)C(N)=O)CC2)NC1=O` [GIP-022, HO-Succinyl-Trp-5Clw-Tap-Glu-leu-[Cys(2Lut)-Apc-Leu-Ile-Cys]-APAc-glu(AGLU)-Lys(DOTA)-NH2] (Suc-W[Trp(5-Cl)][Pro(4R-NH2)]E[dL]C[Api]LIC[X1][dE](NH(1-deoxy-D-glucityl))K(DOTA)-NH2; linker 6-10 via Pyridine(2,6-diCH2)), in assay [1], the IC50 was under 10 nM. In assay [2], the “t1/2 Category” value is given as “A (t1/2 values>15 min)” and the Kd was under 1 nM.
For `CC[C@H](C)[C@@H]1NC(=O)[C@H](CC(C)C)NC(=O)C2(CCN(C(=O)CN3CCN(CC(=O)O)CCN(CC(=O)O)CCN(CC(=O)O)CC3)CC2)NC(=O)[C@@H](NC(=O)[C@@H](CC(C)C)NC(=O)[C@H](CCO)NC(=O)[C@@H]2C[C@@H](NC(=O)CCCC(=O)NC[C@H](O)[C@@H](O)[C@H](O)[C@H](O)CO)CN2C(=O)[C@H](Cc2c[nH]c3ccc(Cl)cc23)NC(=O)[C@H](Cc2c[nH]c3ccccc23)NC(=O)[C@H](CO)NC(=O)CN2CCC(NC(=O)CCCC(=O)NC[C@H](O)[C@@H](O)[C@H](O)[C@H](O)CO)CC2)CSCc2cccc(n2)CSC[C@@H](C(=O)NC2CCN(CC(=O)N[C@H](CCC(=O)NC[C@H](O)[C@@H](O)[C@H](O)[C@H](O)CO)C(N)=O)CC2)NC1=O` [GIP-046, AGLU-Glutar-APAc-Ser-Trp-5Clw-Tap(AGLU-Glutar)-Hse-leu-[Cys(2Lut)-Apc(DOTA)-Leu-Ile-Cys]-APAc-glu(AGLU)-NH2] ({NH(1-deoxy-D-glucityl)-Glutaryl}-[X1]SW[Trp(5-Cl)][Pro(trans-4-NH2)]([Glutaryl-NH(1-deoxy-D-glucityl)])[hSer][dL]C[Api](DOTA)LIC[X1][dE](NH(1-deoxy-D-glucityl))-NH2; linker 8-12 via Pyridine(2,6-diCH2)), in that order: 10 to 79.4 nM, “D (t1/2<2.0 min)” and 1 to 7.94 nM.
